Source: publication PMC11434868, “Synthesis and Antiproliferative Effect of 3,4,5-Trimethoxylated Chalcones on Colorectal and Prostatic Cancer Cells” (Pharmaceuticals, 2024)
Like-named read-outs stand apart in the source and are kept apart here.

Assays:
HCT116 = test: MTT assay, antiproliferative effect on HCT116; type: cell-based; conditions: Homo sapiens
Protocol: (§1) Human CRC (HCT116 and HT-29) and PCa (DU145 and PC3) cell lines were purchased from the American Type Culture Collection (ATCC—LGC Standards, Molsheim, France). All cells were grown in RPMI 1640 medium supplemented with 10% FBS, 1% L-glutamine, 100 U/mL penicillin, and 100 μg/mL streptomycin. Cultures were maintained in a humidified atmosphere containing 5% CO2 at 37 °C. Cells were seeded in 75 cm^2 culture flasks at 1.2 × 10^4 cells/cm^2 for HCT116, DU145, and PC3 cells, and 2.0 × 10^4 for HT-29 cells. Cells were grown for 24 h in culture medium prior to exposure or not to obtain the synthesized compounds. Stock solutions (10^−2 M in DMSO) of each compound were diluted in culture medium to obtain appropriate final concentrations.
(§2) • (a) MTT assay: The antiproliferative effect of all compounds was determined using MTT assay (a metabolic activity test). Briefly, cells were seeded in 96-well culture plates at 4 × 10^3 cells/well for HCT116, PC3, and DU145 cells and 6 × 10^3 cells/well for HT-29 cells (100 µL/well), and grown for 24 h in culture medium prior to exposure or not to obtain compounds 1–15 with concentrations ranging from 5 nM to 50 μM. After 24 and 48 h of treatment, MTT (5 mg/mL in PBS) was added and incubated for another 3 h. MTT was then removed from the wells before adding 100 μL/well of DMSO. The optical density was detected with a microplate reader (Multiskan FC, Thermoscientific, Bordeaux, France) at 550 nm and cell viability was expressed as a percentage of each treatment condition compared to control cells. IC50 values were calculated for all compounds from the dose–response curve. Data are expressed as the arithmetic means ± standard error of the mean (SEM) of separate experiments. All experiments were performed at least in triplicate. • (b) Trypan blue dye exclusion method: Cells were grown for 24 h then treated with compounds 10 and 13 at indicated concentrations. After 48 h of treatment, cells were trypsinized and resuspended in complete medium. Each sample was mixed with Trypan blue solution (0.14% in HBSS, Invitrogen-GIBCO, ThermoFisher, Illkirch, France). Colored (non-viable) and dye-excluding (viable) cells were counted with the LUNA-II automated cell Counter (Logos Biosystems; MC2, Aubière, France). The control was normalized to 100% including viable and dead cells. The results indicated on the histograms were expressed as the percentage of cells compared to the control. IC50 values were determined from the percentages of viable cells compared to the control.

HT-29 = test: MTT assay, antiproliferative effect on HT-29; type: cell-based, human
Protocol: as §1, §2

DU145 = test: MTT assay, antiproliferative effect on DU145; type: cell-based; conditions: Homo sapiens
Protocol: as §1, §2

PC3 = test: MTT assay, antiproliferative effect on PC3; type: cell-based; conditions: Homo sapiens
Protocol: as §1, §2

[1] = tested on: human CRC (HCT116 and HT-29) and human PCa (DU145 and PC3) cell lines; test: MTT assay, summary statements over the cell lines; type: cell-based; conditions: Homo sapiens, 48 h; read-out: IC50 over the four cell lines
Protocol: as §1, §2

[2] = tested on: cellular microtubules in HeLa cells; test: Quantitative assay of the cellular microtubule content (immunoluminescence); type: cell-based; conditions: 30 min incubation
Protocol: The assay was realized as described by Laisne et al.. Briefly, 7500 HeLa cells were seeded in 96-well microplates (#655086, Greiner bioOne, Courtaboeuf, France) in 100 µL of complete medium per well and then incubated at 37 °C in 5% CO2 for 24 h. Cells were then treated for 30 min at 37 °C with the compounds at concentrations ranging from 0.1 to 1000 µM (1 microplate per molecule, 1 concentration per column), with 0.1% DMSO used as […] (6 wells per microplate). After medium aspiration, treated cells were permeabilized for 10 min using 100 µL per well of warmed (37 °C) OPT buffer (80 mM Pipes, 1 mM EGTA, 1 mM MgCl2, 0.5% Triton X-100, and 10% glycerol, pH 6.8). Cells were fixed overnight at room temperature using 100 µL per well of 4% formaldehyde (Sigma Aldrich, #252549, Saint-Quentin-Fallavier, France) in PBS. Cells were washed 3 times in PBS, 0.1% Tween-20 (100 µL per well), then primary anti-alpha-tubulin antibody (clone α3A1), 1:5000 in PBS 2% Bovine Serum Albumin (BSA), was added for 45 min. Cells were washed twice again and secondary anti-mouse antibody coupled to HRP (1:2000 in PBS 2% BSA, #715-035-150, Jackson Immuno-Research Laboratories, Cambridgeshire, UK) was added for 45 min. Then, cells were washed again with PBS and 100 µL of ECL substrate (#170-5061, Bio-Rad Laboratories Inc., Hercules, CA, USA) was injected in each well using the FLUOstar OPTIMA Microplate Reader (BMG Lab technology, Champagny-sur-Marne, France). The luminescent signal was read immediately after ECL injection. IC50 values were calculated using GraphPad Prism software (10.3.1 version) and are presented in the text as means ± SEM of three independent experiments.

[3] = HCT-116, 24 h, read-out: IC50 HCT116 24 h
[4] = HCT-116, 48 h, read-out: IC50 HCT116 48 h
[5] = Homo sapiens, HT-29, 24 h, 24 h, read-out: IC50 HT-29 24 h
[6] = Homo sapiens, HT-29, 48 h, 48 h, read-out: IC50 HT-29 48 h
[7] = DU-145, 24 h, read-out: IC50 DU145 24 h
[8] = DU-145, 48 h, read-out: IC50 DU145 48 h
[9] = PC-3, 24 h, read-out: IC50 PC3 24 h
[10] = PC-3, 48 h, read-out: IC50 PC3 48 h
[11] = 48 h, read-out: IC50 HT-29 48 h

SMILES: COc1ccc(O)c(/C=C/C(=O)c2cc(OC)c(OC)c(OC)c2)c1 [chalcone 6, (E)-3-(2-hydroxy-5-methoxyphenyl)-1-(3,4,5-trimethoxyphenyl)prop-2-en-1-one]
- IC50 (HCT116; [3]): 5.27 ± 0.37 µM
- IC50 (HCT116; [4]): 3.44 ± 0.42 µM
- IC50 (HT-29; [5]): 12.3 ± 0.37 µM
- IC50 (HT-29; [6]): 10.6 ± 0.62 µM
- IC50 (DU145; [7]): 2.84 ± 0.14 µM
- IC50 (DU145; [8]): 2.7 ± 0.1 µM
- IC50 (PC3; [9]): 3.31 ± 0.22 µM
- IC50 (PC3; [10]): 2.81 ± 0.16 µM

SMILES: COc1cc(C(=O)/C=C/c2coc3ccc(O)cc3c2=O)cc(OC)c1OC [chalcone 15, (E)-6-hydroxy-3-(3-oxo-3-(3,4,5-trimethoxyphenyl)prop-1-en-1-yl)-4H-chromen-4-one]
- IC50 (HCT116; [3]): 5.84 ± 0.28 µM
- IC50 (HCT116; [4]): 14.1 ± 0.27 µM
- activity against the HT-29 cell line (HT-29): not active
- IC50 (HT-29; [5]): > 50 µM
- IC50 (DU145; [7]): 3.88 ± 0.32 µM
- IC50 (DU145; [8]): 7.09 ± 0.52 µM
- IC50 (PC3; [9]): 6.48 ± 0.4 µM
- IC50 (PC3; [10]): 7.6 ± 0.44 µM

SMILES: COc1ccc(/C=C/C(=O)c2cc(OC)c(OC)c(OC)c2)c(O)c1 [chalcone 7, (E)-3-(2-hydroxy-4-methoxyphenyl)-1-(3,4,5-trimethoxyphenyl)prop-2-en-1-one]
- IC50 (HCT116; [3]): 13.4 ± 0.21 µM
- IC50 (HCT116; [4]): 3.99 ± 0.16 µM
- IC50 (HT-29; [5]): 14.4 ± 0.65 µM
- IC50 (HT-29; [6]): 11.4 ± 0.68 µM
- IC50 (DU145; [7]): 2.99 ± 0.33 µM
- IC50 (DU145; [8]): 1.33 ± 0.16 µM
- IC50 (PC3; [9]): 2.57 ± 0.44 µM
- IC50 (PC3; [10]): 1.47 ± 0.27 µM

SMILES: COc1cc(C(=O)/C=C/c2ccc(=O)[nH]c2)cc(OC)c1OC [chalcone 11, (E)-5-(3-oxo-3-(3,4,5-trimethoxyphenyl)prop-1-en-1-yl)pyridin-2(1H)-one]
- IC50 (HCT116; [3]): 25.2 ± 0.48 µM
- IC50 (HCT116; [4]): 16.6 ± 0.79 µM
- IC50 (HT-29; [11]): 23.6 ± 0.37 µM
- IC50 (HT-29; [5]): 35.6 ± 0.94 µM
- IC50 (HT-29; [6]): > 20 µM
- IC50 (DU145; [7]): 22.3 ± 0.76 µM
- IC50 (DU145; [8]): 15.6 ± 0.84 µM
- IC50 (PC3; [9]): 24.5 ± 0.64 µM
- IC50 (PC3; [10]): 17.7 ± 0.55 µM
- IC50 [1]: > 15 µM
- melting point: 217 to 219 °C

SMILES: COc1cc(/C=C/C(=O)c2cc(OC)c(OC)c(OC)c2)ccc1O [chalcone 9, (E)-3-(4-hydroxy-3-methoxyphenyl)-1-(3,4,5-trimethoxyphenyl)prop-2-en-1-one]
- IC50 (HCT116; [3]): 8.58 ± 0.28 µM
- IC50 (HCT116; [4]): 3.48 ± 0.19 µM
- IC50 (HT-29; [11]): 26.8 ± 0.4 µM
- IC50 (HT-29; [5]): 32.6 ± 0.51 µM
- IC50 (HT-29; [6]): > 20 µM
- IC50 (DU145; [7]): 3.75 ± 0.15 µM
- IC50 (DU145; [8]): 2.41 ± 0.08 µM
- IC50 (PC3; [9]): 4.42 ± 0.24 µM
- IC50 (PC3; [10]): 2.97 ± 0.13 µM

SMILES: COc1cc(C(=O)/C=C/c2ccccc2O)cc(OC)c1OC [chalcone 1, (E)-3-(2-hydroxyphenyl)-1-(3,4,5-trimethoxyphenyl)prop-2-en-1-one]
- IC50 (HCT116; [3]): 4.54 ± 0.65 µM
- IC50 (HCT116; [4]): 3.27 ± 0.11 µM
- IC50 (HT-29; [5]): 10.8 ± 0.57 µM
- IC50 (HT-29; [6]): 9.65 ± 0.12 µM
- IC50 (DU145; [7]): 5.33 ± 0.42 µM
- IC50 (DU145; [8]): 3.6 ± 0.1 µM
- IC50 (PC3; [9]): 5.04 ± 0.29 µM
- IC50 (PC3; [10]): 4.23 ± 0.35 µM

SMILES: COc1cc(O)ccc1/C=C/C(=O)c1cc(OC)c(OC)c(OC)c1 [chalcone 4, (E)-3-(4-hydroxy-2-methoxyphenyl)-1-(3,4,5-trimethoxyphenyl)prop-2-en-1-one]
- IC50 (HCT116; [3]): 8.79 ± 0.39 µM
- IC50 (HCT116; [4]): 3.98 ± 0.22 µM
- IC50 (HT-29; [5]): 21.3 ± 0.94 µM
- IC50 (HT-29; [6]): 17.7 ± 0.29 µM
- IC50 (DU145; [7]): 4.2 ± 0.2 µM
- IC50 (DU145; [8]): 2.69 ± 0.22 µM
- IC50 (PC3; [9]): 4.8 ± 0.48 µM
- IC50 (PC3; [10]): 3.05 ± 0.12 µM

SMILES: COc1cc(C(=O)/C=C/c2coc3ccccc3c2=O)cc(OC)c1OC [chalcone 12, (E)-3-(3-oxo-3-(3,4,5-trimethoxyphenyl)prop-1-en-1-yl)-4H-chromen-4-one]
- IC50 (HCT116; [3]): 14.2 ± 0.41 µM
- IC50 (HCT116; [4]): 13.2 ± 0.4 µM
- IC50 (HT-29; [5]): 13.6 ± 0.3 µM
- IC50 (HT-29; [6]): 13.2 ± 0.42 µM
- IC50 (DU145; [7]): 10.8 ± 0.34 µM
- IC50 (DU145; [8]): 11.7 ± 0.29 µM
- IC50 (PC3; [9]): 11.5 ± 0.28 µM
- IC50 (PC3; [10]): 12.2 ± 0.23 µM
- melting point: 215 to 217 °C

SMILES: COc1cc(C(=O)/C=C/c2coc3ccc(C(C)C)cc3c2=O)cc(OC)c1OC [chalcone 14, (E)-6-isopropyl-3-(3-oxo-3-(3,4,5-trimethoxyphenyl)prop-1-en-1-yl)-4H-chromen-4-one]
- IC50 (HCT116; [3]): 15.3 ± 0.52 µM
- IC50 (HCT116; [4]): 13.3 ± 0.3 µM
- IC50 (HT-29; [5]): 22.9 ± 0.72 µM
- IC50 (HT-29; [6]): 17 ± 1.41 µM
- IC50 (DU145; [7]): 13.2 ± 0.49 µM
- IC50 (DU145; [8]): 12.4 ± 0.2 µM
- IC50 (PC3; [9]): 14.11 ± 0.04 µM
- IC50 (PC3; [10]): 12.8 ± 0.37 µM
- melting point: 183 to 185 °C

SMILES: COc1cc(C(=O)/C=C/c2ccc(O)cc2)cc(OC)c1OC [chalcone 3, (E)-3-(4-hydroxyphenyl)-1-(3,4,5-trimethoxyphenyl)prop-2-en-1-one]
- IC50 (HCT116; [3]): 11.62 ± 0.06 µM
- IC50 (HCT116; [4]): 12.1 ± 0.44 µM
- IC50 (HT-29; [5]): 17.9 ± 0.69 µM
- IC50 (HT-29; [6]): 15.1 ± 0.46 µM
- IC50 (DU145; [7]): 11.3 ± 0.48 µM
- IC50 (DU145; [8]): 11.2 ± 0.44 µM
- IC50 (PC3; [9]): 10.94 ± 0.1 µM
- IC50 (PC3; [10]): 9.85 ± 0.43 µM
- IC50 depolymerization of cellular microtubules [2]: no effect

SMILES: COc1ccc(O)cc1/C=C/C(=O)c1cc(OC)c(OC)c(OC)c1 [chalcone 5, (E)-3-(5-hydroxy-2-methoxyphenyl)-1-(3,4,5-trimethoxyphenyl)prop-2-en-1-one]
- IC50 (HCT116; [3]): 8.72 ± 0.41 µM
- IC50 (HCT116; [4]): 4.92 ± 0.49 µM
- IC50 (HT-29; [11]): 22.1 ± 0.48 µM
- IC50 (HT-29; [5]): 25.2 ± 1.28 µM
- IC50 (HT-29; [6]): > 20 µM
- IC50 (DU145; [7]): 5.5 ± 0.26 µM
- IC50 (DU145; [8]): 4.37 ± 0.3 µM
- IC50 (PC3; [9]): 5.54 ± 0.31 µM
- IC50 (PC3; [10]): 4 ± 0.3 µM
